# Source: publication PMC4297448, “Detection of distinct glycosylation patterns on human γ-glutamyl transpeptidase 1 using antibody-lectin sandwich array (ALSA) technology” (BMC Biotechnology, 2014)
# Biological target: T1, microvirin (MVN) (Microcystis aeruginosa, UniProt Q2MDE2)
# T1 construct: full-length, N-terminal hexahistidine tag (pET-15b), E. coli BL21(DE3), Ni-NTA purified, biotinylated with NHS-SS-biotin
# T1 sequence (Q2MDE2 1-108): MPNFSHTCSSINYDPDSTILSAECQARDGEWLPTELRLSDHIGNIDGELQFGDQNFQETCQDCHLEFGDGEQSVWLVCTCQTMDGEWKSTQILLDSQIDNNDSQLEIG
# Experiment: CFG glycan microarray V5.[…], fluorescence
# Assay type: binding
# Conditions: biotinylated MVN 200 μg/mL, Alexa Fluor 488-avidin; glycan immobilised via spacer
row,Compound,Fluorescence (%) ^a
1,"CC(=O)N[C@@H]1[C@@H](O)[C@H](O[C@@H]2O[C@H](CO)[C@@H](O[C@@H]3O[C@H](CO[C@H]4O[C@H](CO[C@H]5O[C@H](CO)[C@@H](O)[C@H](O)[C@@H]5O[C@H]5O[C@H](CO)[C@@H](O)[C@H](O)[C@@H]5O)[C@@H](O)[C@H](O[C@H]5O[C@H](CO)[C@@H](O)[C@H](O)[C@@H]5O[C@H]5O[C@H](CO)[C@@H](O)[C@H](O)[C@@H]5O)[C@@H]4O)[C@@H](O)[C@H](O[C@H]4O[C@H](CO)[C@@H](O)[C@H](O)[C@@H]4O[C@H]4O[C@H](CO)[C@@H](O)[C@H](O)[C@@H]4O[C@H]4O[C@H](CO)[C@@H](O)[C@H](O)[C@@H]4O)[C@@H]3O)[C@H](O)[C@H]2NC(C)=O)[C@@H](CO)O[C@H]1NC(=O)C[C@H](N)C(=O)O [compound 213, Manα1-2Manα1-6(Manα1-2Manα1-3)Manα1-6(Manα1-2Manα1-2Manα1-3)Manβ1-4GlcNAcβ1-4GlcNAcβ-Sp12]",19.8%
2,"CC(=O)N[C@@H]1[C@@H](O)[C@H](O[C@@H]2O[C@H](CO)[C@@H](O[C@@H]3O[C@H](CO[C@H]4O[C@H](CO[C@H]5O[C@H](CO)[C@@H](O)[C@H](O)[C@@H]5O[C@H]5O[C@H](CO)[C@@H](O)[C@H](O)[C@@H]5O)[C@@H](O)[C@H](O[C@H]5O[C@H](CO)[C@@H](O)[C@H](O)[C@@H]5O)[C@@H]4O)[C@@H](O)[C@H](O[C@H]4O[C@H](CO)[C@@H](O)[C@H](O)[C@@H]4O[C@H]4O[C@H](CO)[C@@H](O)[C@H](O)[C@@H]4O[C@H]4O[C@H](CO)[C@@H](O)[C@H](O)[C@@H]4O)[C@@H]3O)[C@H](O)[C@H]2NC(C)=O)[C@@H](CO)O[C@H]1NC(=O)C[C@H](N)C(=O)O [compound 212, Manα1-2Manα1-6(Manα1-3)Manα1-6(Manα1-2Manα1-2Manα1-3)Manβ1-4GlcNAcβ1-4GlcNAcβ-Sp12]",100.0%
3,Manα1-2Manα1-2Manα1-6(Manα1-3)Manα-Sp9 [compound 215],78.1%
4,Manα1-2Manα1-3Manα-Sp9 [compound 210],57.7%
5,"CC(=O)N[C@@H]1[C@@H](O)[C@H](O[C@@H]2O[C@H](CO)[C@@H](O[C@@H]3O[C@H](CO[C@H]4O[C@H](CO[C@H]5O[C@H](CO)[C@@H](O)[C@H](O)[C@@H]5O)[C@@H](O)[C@H](O[C@H]5O[C@H](CO)[C@@H](O)[C@H](O)[C@@H]5O[C@H]5O[C@H](CO)[C@@H](O)[C@H](O)[C@@H]5O)[C@@H]4O)[C@@H](O)[C@H](O[C@H]4O[C@H](CO)[C@@H](O)[C@H](O)[C@@H]4O[C@H]4O[C@H](CO)[C@@H](O)[C@H](O)[C@@H]4O)[C@@H]3O)[C@H](O)[C@H]2NC(C)=O)[C@@H](CO)O[C@H]1NC(=O)C[C@H](N)C(=O)O [compound 211, Manα1-6(Manα1-2Manα1-3)Manα1-6(Manα1-2Manα1-3)Manβ1-4GlcNAcβ1-4GlcNAcβ-Sp12]",31.7%
6,Manα1-2Manα1-2Manα1-3Manα-Sp9 [compound 208],63.8%
7,Manα1-2Manα1-6(Manα1-2Manα1-3)Manα1-6(Manα1-2Manα1-2Manα1-3)Manα-Sp9 [compound 317],34.9%
8,Manα1-2Manα1-6(Manα1-2Manα1-3)Manα-Sp9 [compound 209],39.5%
9,Manα1-2Manα1-6(Manα1-3)Manα1-6(Manα1-2Manα1-2Manα1-3)Manα-Sp9 [compound 316],48.8%
